# Reference: patent US9119821B2, “Use of methionine sulfoximine to treat acute liver failure and other diseases caused by an inflammatory cytokine response” (priority 2010, dated 2015)
# What was measured:
# [1] = biological target: T1, glutamine synthetase (Mus musculus, UniProt P15105); experiment: Glutamine synthetase activity in liver extracts of treated mice; format: in vivo; details: 890 mg/kg IP 3 hours prior to LPS/D-GalN
# T1 construct: liver homogenates were prepared from liver tissue excised and immediately homogenized; from tissue; host or cells: mouse liver homogenate supernatant
# Procedure: Tissue and plasma were collected from male mice, which were divided into two groups. One group was injected with saline three hours prior to LPS/D-GalN injections. The second group was given MSO three hours prior to being injected with LPS/D-GalN. Control mice (t=0) were treated with MSO or saline for 3 hours and then euthanized (not exposed to LPS/D-GalN). After LPS/D-GalN injection at time zero, tissue and plasma samples were collected at one-hour time intervals from 1 to 5 hours.
# To analyze enzyme activities liver homogenates were prepared from liver tissue excised and immediately homogenized in ice-cold buffer consisting of 250 mM sucrose, 10 mM Tris and 0.1 mM EGTA with protease inhibitor cocktail (Sigma #P8340). The homogenized tissue was centrifuged at 2375×g for 5 min. The tissue supernatant fraction was frozen on dry ice and stored at −80° C.
# Glutamine synthetase was assayed as described by Meister, A. Glutamine synthetase from mammalian tissues. […] The reaction with the substrates glutamine and hydroxylamine was stopped using ferric chloride stop solution (0.37 M FeCl3, 0.67 M HCl, 0.20 M TCA) and the colorimetric product formed—γ-glutamyl hydroxamate—was measured at 535 nm. The absorbance values were converted to activities by comparison to a standard curve of pure glutamyl hydroxamate (a generous gift from Arthur J. Cooper, Department of Biochemistry and Molecular Biology, New York Medical College).
# [2] = tested on: MLP 29 cells; experiment: Flow cytometry of apoptosis induced by TNF-α plus actinomycin D; format: cell-based, mouse; details: 9 mM, one hour preincubation, then TNF-α plus actinomycin D for 10 hours
# Procedure: Output of multiparametric FACS analyses. Mouse liver progenitor cells, MLP 29, are incubated for one hour with either no addition (first lane, FIG. 3C(a)), 9 mM MSO (second lane, FIG. 3C(b)), or 9 mM BSO (third lane, FIG. 3C(c)), then exposed for 10 hours to either no addition—(BAS, first column), TNF-α plus actinomycin D (second column), or actinomycin D alone (third column). Viable cells (V) are delimited by the quadrant. Apoptotic cells display mitochondrial depolarization (reduced TMRM staining) and/or expose phosphatidylserine on their surface (increased Annexin V-FITC staining). Propidium iodide-positive, i.e. dead cells (PI), are evaluated on a PI vs TMRM diagram (not shown); these cells are excluded from the reported plots, but the percentage of propidium iodide positive (i.e. dead) cells is shown in each box (PI), as is the percentage of viable cells (V);
# Samples were analyzed on a FACSCalibur flow cytometer (Becton Dickinson, San Diego, Calif.). Data acquisition was performed using CellQuest software and data analysis with WinMD1 software. Each experiment was repeated at least four times.
# [3] = biological target: T2, GGCS (Homo sapiens, UniProt P48506); details: known from the literature; cited from earlier work
# T2 sequence (P48506 1-637): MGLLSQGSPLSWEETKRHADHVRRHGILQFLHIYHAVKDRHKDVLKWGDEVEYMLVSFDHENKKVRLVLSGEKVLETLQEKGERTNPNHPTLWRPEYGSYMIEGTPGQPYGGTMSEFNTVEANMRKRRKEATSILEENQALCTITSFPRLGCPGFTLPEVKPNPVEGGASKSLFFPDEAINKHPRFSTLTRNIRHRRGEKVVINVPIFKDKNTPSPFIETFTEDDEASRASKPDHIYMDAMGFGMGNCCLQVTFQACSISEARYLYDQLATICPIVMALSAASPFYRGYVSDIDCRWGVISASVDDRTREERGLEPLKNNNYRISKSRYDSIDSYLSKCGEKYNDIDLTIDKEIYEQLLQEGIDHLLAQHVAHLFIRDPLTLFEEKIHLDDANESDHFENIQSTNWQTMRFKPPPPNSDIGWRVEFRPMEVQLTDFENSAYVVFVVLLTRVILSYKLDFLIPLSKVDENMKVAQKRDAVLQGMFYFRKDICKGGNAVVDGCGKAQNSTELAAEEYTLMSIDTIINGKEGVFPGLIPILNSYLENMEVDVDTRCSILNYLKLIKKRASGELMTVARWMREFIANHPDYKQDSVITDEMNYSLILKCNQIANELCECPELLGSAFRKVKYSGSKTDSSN
# [4] = tested on: CD1 mice treated with LPS/D-GalN; experiment: Survival of mice with LPS/D-GalN induced acute liver failure; format: in vivo, mouse; details: 890 mg/kg IP 3 hours prior to LPS/D-GalN
# Text: Six to eight week old CD1 mice are obtained from Charles River. Animals were housed in Wayne State University or University of Padova, Vallisneri Interdepartmental Complex animal quarters until the time of the experiment. Food was withdrawn the night before the day of the experiment. All experiments were approved by the Animal Investigation Committee of Wayne State University or by the Authority of the University of Padova and authorized by the Italian Ministry of Health.
# Animals were divided into two groups. Group one animals consisted of both male and female mice injected with LPS and D-GalN to induce hepatic failure. Survival was monitored post LPS/D-GalN administration and the time of injection was considered to be zero hour (t=0). Group two animals consisted of mice injected with MSO three hours prior to LPS and D-GalN administration. […] […] For analysis of the effect of MSO treatment on the cell death pathway activated by the Fas ligand, mice were pre-treated with MSO as described above, and at time zero were injected with Jo2 antibody ([…]).
# Animals were monitored continuously post LPS/D-GalN or Jo2 administration. […] The time of death was recorded as hours after LPS/D-GalN injection. Fisher's exact test was used to determine two-tailed p values for the statistical between the treated and untreated groups.
# T1 sequence (P15105 2-373 limits assumed): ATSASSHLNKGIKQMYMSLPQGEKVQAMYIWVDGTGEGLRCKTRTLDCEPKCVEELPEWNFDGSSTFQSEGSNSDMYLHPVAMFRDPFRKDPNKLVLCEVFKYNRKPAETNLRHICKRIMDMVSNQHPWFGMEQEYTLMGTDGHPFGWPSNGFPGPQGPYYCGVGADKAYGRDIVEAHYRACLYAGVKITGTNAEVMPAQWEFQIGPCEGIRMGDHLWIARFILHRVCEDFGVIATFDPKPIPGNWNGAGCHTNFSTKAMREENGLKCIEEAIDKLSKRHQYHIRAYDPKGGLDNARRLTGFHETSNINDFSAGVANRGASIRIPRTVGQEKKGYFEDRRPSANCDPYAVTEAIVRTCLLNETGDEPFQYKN
compound,measurement,setting,value
"CCCCS(=N)(=O)CCC(N)C(=O)O (centres unmarked) [BSO, buthionine sulfoximine, reference compound]",effect on glutamine synthetase activities,[1],no effect
same,rescue of cells from apoptosis induced by TNF-α,[2],neither MSO nor BSO could rescue cells
same,"inhibition of GGCS, effectiveness relative to MSO",[3],100 times
same,effect on survival of mice treated with LPS/D-GalN,[4],no effect
same,survival,[4]; 3 out of 20 treated mice survived,15%
